Numbers after ± are expanded uncertainties.
test: activity coefficient (dimensionless); of the first substance listed, at infinite dilution; xn = mol fraction of the nth substance listed; conditions: 348.15 K; 101.33 kPa; Liquid; Chromatography; x1 = 0

Structure (SMILES)	activity coefficient
Cc1ccccc1C [1,2-dimethylbenzene] + CCCCCCCCCCCCn1cc[n+](C)c1.O=S(=O)([N-]S(=O)(=O)C(F)(F)F)C(F)(F)F	0.93 ± 0.06
Cc1cccc(C)c1 [1,3-dimethylbenzene] + CCCCCCCCCCCCn1cc[n+](C)c1.O=S(=O)([N-]S(=O)(=O)C(F)(F)F)C(F)(F)F	1 ± 0.06
Cc1ccc(C)cc1 [1,4-dimethylbenzene] + CCCCCCCCCCCCn1cc[n+](C)c1.O=S(=O)([N-]S(=O)(=O)C(F)(F)F)C(F)(F)F	1 ± 0.06
C1COCCO1 [1,4-dioxane] + CCCCCCCCCCCCn1cc[n+](C)c1.O=S(=O)([N-]S(=O)(=O)C(F)(F)F)C(F)(F)F	0.548 ± 0.04
C=CCCCCCCCC [1-decene] + CCCCCCCCCCCCn1cc[n+](C)c1.O=S(=O)([N-]S(=O)(=O)C(F)(F)F)C(F)(F)F	4.44 ± 0.3
C=CCCCCC [1-heptene] + CCCCCCCCCCCCn1cc[n+](C)c1.O=S(=O)([N-]S(=O)(=O)C(F)(F)F)C(F)(F)F	2.74 ± 0.19
C#CCCCCC [1-heptyne] + CCCCCCCCCCCCn1cc[n+](C)c1.O=S(=O)([N-]S(=O)(=O)C(F)(F)F)C(F)(F)F	1.65 ± 0.11
C#CCCCC [1-hexyne] + CCCCCCCCCCCCn1cc[n+](C)c1.O=S(=O)([N-]S(=O)(=O)C(F)(F)F)C(F)(F)F	1.4 ± 0.09
CCC[N+](=O)[O-] [1-nitropropane] + CCCCCCCCCCCCn1cc[n+](C)c1.O=S(=O)([N-]S(=O)(=O)C(F)(F)F)C(F)(F)F	0.609 ± 0.043
C#CCCCCCC [1-octyne] + CCCCCCCCCCCCn1cc[n+](C)c1.O=S(=O)([N-]S(=O)(=O)C(F)(F)F)C(F)(F)F	1.93 ± 0.13
C=CCCC [1-pentene] + CCCCCCCCCCCCn1cc[n+](C)c1.O=S(=O)([N-]S(=O)(=O)C(F)(F)F)C(F)(F)F	1.99 ± 0.14
C#CCCC [1-pentyne] + CCCCCCCCCCCCn1cc[n+](C)c1.O=S(=O)([N-]S(=O)(=O)C(F)(F)F)C(F)(F)F	1.2 ± 0.08
CC(C)CC(C)(C)C [2,2,4-trimethylpentane] + CCCCCCCCCCCCn1cc[n+](C)c1.O=S(=O)([N-]S(=O)(=O)C(F)(F)F)C(F)(F)F	3.79 ± 0.26
CCC(C)(C)C [2,2-dimethylbutane] + CCCCCCCCCCCCn1cc[n+](C)c1.O=S(=O)([N-]S(=O)(=O)C(F)(F)F)C(F)(F)F	3 ± 0.2
CCOC(C)(C)C [2-ethoxy-2-methylpropane] + CCCCCCCCCCCCn1cc[n+](C)c1.O=S(=O)([N-]S(=O)(=O)C(F)(F)F)C(F)(F)F	1.75 ± 0.12
CCC(C)(C)OC [2-methoxy-2-methylbutane] + CCCCCCCCCCCCn1cc[n+](C)c1.O=S(=O)([N-]S(=O)(=O)C(F)(F)F)C(F)(F)F	1.29 ± 0.08

Structure (SMILES)	activity coefficient
COC(C)(C)C [2-methoxy-2-methylpropane] + CCCCCCCCCCCCn1cc[n+](C)c1.O=S(=O)([N-]S(=O)(=O)C(F)(F)F)C(F)(F)F	1.09 ± 0.07
CC(C)CO [2-methyl-1-propanol] + CCCCCCCCCCCCn1cc[n+](C)c1.O=S(=O)([N-]S(=O)(=O)C(F)(F)F)C(F)(F)F	1.26 ± 0.08
CC(C)(C)O [2-methylpropan-2-ol] + CCCCCCCCCCCCn1cc[n+](C)c1.O=S(=O)([N-]S(=O)(=O)C(F)(F)F)C(F)(F)F	0.998 ± 0.062
CCC(C)CC [3-methylpentane] + CCCCCCCCCCCCn1cc[n+](C)c1.O=S(=O)([N-]S(=O)(=O)C(F)(F)F)C(F)(F)F	2.94 ± 0.2
C=C(C)c1ccccc1 [(1-methylethenyl)benzene] + CCCCCCCCCCCCn1cc[n+](C)c1.O=S(=O)([N-]S(=O)(=O)C(F)(F)F)C(F)(F)F	0.949 ± 0.06
CC(C)=O [acetone] + CCCCCCCCCCCCn1cc[n+](C)c1.O=S(=O)([N-]S(=O)(=O)C(F)(F)F)C(F)(F)F	0.401 ± 0.034
CC#N [acetonitrile] + CCCCCCCCCCCCn1cc[n+](C)c1.O=S(=O)([N-]S(=O)(=O)C(F)(F)F)C(F)(F)F	0.531 ± 0.039
c1ccccc1 [benzene] + CCCCCCCCCCCCn1cc[n+](C)c1.O=S(=O)([N-]S(=O)(=O)C(F)(F)F)C(F)(F)F	0.644 ± 0.044
CCCCO [butan-1-ol] + CCCCCCCCCCCCn1cc[n+](C)c1.O=S(=O)([N-]S(=O)(=O)C(F)(F)F)C(F)(F)F	1.31 ± 0.09
CCC(C)O (stereo unspecified) [butan-2-ol] + CCCCCCCCCCCCn1cc[n+](C)c1.O=S(=O)([N-]S(=O)(=O)C(F)(F)F)C(F)(F)F	1.13 ± 0.07
CCCC=O [butanal] + CCCCCCCCCCCCn1cc[n+](C)c1.O=S(=O)([N-]S(=O)(=O)C(F)(F)F)C(F)(F)F	0.531 ± 0.039
C1CCCCCC1 [cycloheptane] + CCCCCCCCCCCCn1cc[n+](C)c1.O=S(=O)([N-]S(=O)(=O)C(F)(F)F)C(F)(F)F	2.49 ± 0.17
C1CCCCC1 [cyclohexane] + CCCCCCCCCCCCn1cc[n+](C)c1.O=S(=O)([N-]S(=O)(=O)C(F)(F)F)C(F)(F)F	2.18 ± 0.15
C1=CCCCC1 [cyclohexene] + CCCCCCCCCCCCn1cc[n+](C)c1.O=S(=O)([N-]S(=O)(=O)C(F)(F)F)C(F)(F)F	1.65 ± 0.11
C1CCCCCCC1 [cyclooctane] + CCCCCCCCCCCCn1cc[n+](C)c1.O=S(=O)([N-]S(=O)(=O)C(F)(F)F)C(F)(F)F	2.84 ± 0.19

same assay, conditions: 358.15 K; 101.33 kPa; Liquid; Chromatography; x1 = 0

Structure (SMILES)	activity coefficient
Cc1ccccc1C [1,2-dimethylbenzene] + CCCCCCCCCCCCn1cc[n+](C)c1.O=S(=O)([N-]S(=O)(=O)C(F)(F)F)C(F)(F)F	0.968 ± 0.061
Cc1cccc(C)c1 [1,3-dimethylbenzene] + CCCCCCCCCCCCn1cc[n+](C)c1.O=S(=O)([N-]S(=O)(=O)C(F)(F)F)C(F)(F)F	1.04 ± 0.07
Cc1ccc(C)cc1 [1,4-dimethylbenzene] + CCCCCCCCCCCCn1cc[n+](C)c1.O=S(=O)([N-]S(=O)(=O)C(F)(F)F)C(F)(F)F	1.05 ± 0.07
C1COCCO1 [1,4-dioxane] + CCCCCCCCCCCCn1cc[n+](C)c1.O=S(=O)([N-]S(=O)(=O)C(F)(F)F)C(F)(F)F	0.572 ± 0.041
C=CCCCCCCCC [1-decene] + CCCCCCCCCCCCn1cc[n+](C)c1.O=S(=O)([N-]S(=O)(=O)C(F)(F)F)C(F)(F)F	4.52 ± 0.31
C=CCCCCC [1-heptene] + CCCCCCCCCCCCn1cc[n+](C)c1.O=S(=O)([N-]S(=O)(=O)C(F)(F)F)C(F)(F)F	2.8 ± 0.19
C#CCCCCC [1-heptyne] + CCCCCCCCCCCCn1cc[n+](C)c1.O=S(=O)([N-]S(=O)(=O)C(F)(F)F)C(F)(F)F	1.7 ± 0.11
C#CCCCC [1-hexyne] + CCCCCCCCCCCCn1cc[n+](C)c1.O=S(=O)([N-]S(=O)(=O)C(F)(F)F)C(F)(F)F	1.45 ± 0.1
CCC[N+](=O)[O-] [1-nitropropane] + CCCCCCCCCCCCn1cc[n+](C)c1.O=S(=O)([N-]S(=O)(=O)C(F)(F)F)C(F)(F)F	0.621 ± 0.043
C#CCCCCCC [1-octyne] + CCCCCCCCCCCCn1cc[n+](C)c1.O=S(=O)([N-]S(=O)(=O)C(F)(F)F)C(F)(F)F	1.99 ± 0.14
C=CCCC [1-pentene] + CCCCCCCCCCCCn1cc[n+](C)c1.O=S(=O)([N-]S(=O)(=O)C(F)(F)F)C(F)(F)F	2.04 ± 0.14
C#CCCC [1-pentyne] + CCCCCCCCCCCCn1cc[n+](C)c1.O=S(=O)([N-]S(=O)(=O)C(F)(F)F)C(F)(F)F	1.24 ± 0.08
CC(C)CC(C)(C)C [2,2,4-trimethylpentane] + CCCCCCCCCCCCn1cc[n+](C)c1.O=S(=O)([N-]S(=O)(=O)C(F)(F)F)C(F)(F)F	3.85 ± 0.26
CCC(C)(C)C [2,2-dimethylbutane] + CCCCCCCCCCCCn1cc[n+](C)c1.O=S(=O)([N-]S(=O)(=O)C(F)(F)F)C(F)(F)F	3.05 ± 0.21
CCOC(C)(C)C [2-ethoxy-2-methylpropane] + CCCCCCCCCCCCn1cc[n+](C)c1.O=S(=O)([N-]S(=O)(=O)C(F)(F)F)C(F)(F)F	1.82 ± 0.12

— the NIST ThermoML archive (doi:10.1016/j.jct.2016.08.008)
